One series deals with SARS-COV-2. Put plainly: microbe, parasite or virus in culture. Format: cell-based. More on the design: SI (Selectivity Index, CC50/IC50): unit not given here. As to conditions: for SI (Selectivity Index, CC50/IC50): SARS-COV-2, values >50 assumed to be 50; for IC50: Severe acute respiratory syndrome coronavirus 2, Vero cells, 24 hours infection, read-out: SARS-COV-2 inhibition (IC50).

Series [1] relates to IL-4 secretion in RBL-2H3 cells. The experiment in a line: Inhibition of IL-4 secretion in RBL-2H3 cell line (A23187 induced, ELISA). It is filed as cell-based. As to conditions: Rattus norvegicus. Here is the method:
The RBL-2H3 cell line was purchased from the American Type Culture Collection (ATCC #CRL-2256). The cells were diluted at a concentration of 1×10^6 cells/ml in RPMI medium containing 15% fetal bovine serum (FBS) and antibiotics (penicillin at 100 U/mL, streptomycin at 100 μg/mL), distributed at 200 μl/well in a 48 well plate, and cultured in a 37° C., 5% CO2 incubator for 24 hours. In 24 hours later, the cells were pre-treated one hour before with a test drug and AS1517499 (STAT6 inhibitor) as a control drug, and treated with 1 uM of A23187 for six hours to induce an immune response, after which a group not containing the drug was used as a control. In order to measure a secretion level of cytokine IL-4, the medium was collected from the well plate and centrifuged at 125×g for five minutes to remove a residue, and 100 μl of the medium was used to measure an amount of IL-4 secreted from the cells by using IL-4 enzyme-linked immunosorbent assay (ELISA, Komabiotech). A degree of inhibition of cell secretion by the drug was calculated using [Equation 1] below.
First of all, 288 kinds of materials were treated at a single concentration of 10 uM so as to select 60 kinds of materials which inhibit secretion of IL-4 by 75% or more (FIG. 19).
After that, a repeated experiment and a two-concentration (10, 3 uM) test were performed using the selected 60 kinds of materials so as to select the final eight kinds, and the IC50 value was calculated and shown in Table 3.
Background: An ELISA detects its analyte on a solid surface through an enzyme-linked reagent.

For series [2], the system named is IL-4 secretion in mouse splenocytes. The experiment in a line: Inhibition of IL-4 secretion in mouse splenocytes (Concanavalin A, ELISA). Format: cell-based, Balb/c mice. Particulars: for inhibition at 1 µM: Splenocyte, read-out: IL-4 Secretion inhibitory ability (%); for IL-4 pg/ml: Concanavalin A 5 μg/mL, 48 hours. Here is the method:
(§1) The isolated splenocytes were diluted at a concentration of 5×10^6 cells/mL in RPMI medium containing 10% fetal bovine serum (FBS) and antibiotics (penicillin at 100 U/mL, streptomycin at 100 μg/mL), distributed at 500 μl/well in a 24 well plate, and cultured in a 37° C., 5% CO2 incubator for 48 hours. When splenocytes were distributed, an immune reaction was induced by treating with 5 μg/mL of Concanavalin A, and at this time, the splenocytes were treated with the materials selected in Experimental Example 3 at a concentration of 1 uM. First, in order to measure Th2 cytokines, the medium was collected from the 24-well plate, and only the supernatant was separated through centrifugation at 800×g for five minutes, after which 100 μl of the supernatant per well was used in an enzyme-linked immunosorbent assay (ELISA, Komabiotech) experiment so as to measure a degree of secretion of Th2 cytokines IL-4 and IL-5. A degree of inhibition against secretion of cytokines by the test material was calculated using [Equation 2] below, and the measurement results are shown in Table 7.

Series [3] relates to IL-5 secretion in mouse splenocytes. Put plainly: Inhibition of IL-5 secretion in mouse splenocytes (Concanavalin A, ELISA). Particulars: for inhibition at 1 µM: Splenocyte, read-out: IL-5 Secretion inhibitory ability (%); for IL-5 pg/ml: Concanavalin A 5 μg/mL, 48 hours. Format: cell-based, Balb/c mice. Here is the method:
as §1

A short description of the next series: in vitro. Particulars: African green monkey.
For series [4], the system named is SFTS virus (KADGH; NCCP43261). Put plainly: microbe, parasite or virus in culture. It is filed as cell-based, severe fever with thrombocytopenia syndrome virus. Particulars: Severe fever with thrombocytopenia syndrome virus, Vero, 24 h, read-out: SFTSV inhibition (IC50, μM).
Series [5] relates to IL-5 expression in Th2 cells. Put plainly: Inhibition of IL-5 expression in Th2 cells (ELISA). Format: cell-based, Balb/C mice. As to conditions: Splenocyte; Th2 cells from mouse splenocytes, compound 1 nM; read-out: Inhibitory ability against IL-5 expression (%). Here is the method: Specifically, after spleens were collected from Balb/C mice, CD4+ T cells were isolated therefrom and were seeded at 1-2×10^6 per well into a 48-well tissue culture plate coated with anti-CD3 (5 ug/ml) and anti-CD28 (1 ug/ml). At this time, the culture medium was incubated with IL-2 (20 ng/ml), IL-4 (100 ng/ml), anti-IFNγ (10 ug/ml), anti-IL12 (10 ug/ml), and a derivative of 1 nM for two days, transferred to a new tissue culture plate, and further cultured for three days to induce differentiation into Th2 cells. After replacing with a new medium containing anti-IFNγ (10 ug/ml), anti-IL12 (10 ug/ml) and a derivative of 1 nM, polarization of Th2 cells was induced using PMA and A23187. After two days of culture, the cells were centrifuged and the culture medium was taken to perform IL-5 ELISA. IL-5 ELISA was performed according to the test method of the kit manufacturer.

The subject of series [6] is Balb/c mouse asthma model. The experiment in a line: Balb/c mouse asthma model (ovalbumin), BALF IgE, IL-4, IL-5 and inflammatory cells. It is filed as in vivo, Balb/c mice. As to conditions: Example 73 10 mg/kg oral, dexamethasone 1 mg/kg intraperitoneal. Here is the method: In detail, five-week-old Balb/c mice were purchased and acclimated for one week, after which the mice were sensitized systemically by intraperitoneal injection with 0.1% ovalbumin (OVA 1 mg/mL, Al(OH)3 20 mg/mL) at 100 μl/mouse on days 0 and 14 from a week after the acclimation. From a week (day 21) after a final systemic sensitization, the compound of Example 73 was orally administered everyday at 10 mg/kg to mice for ten days, and dexamethasone was intraperitoneally administered at 1 mg/kg as a positive control group. In one hour later, 0.2% ovalbumin solution was sprayed with a nebulizer (PARIBoy SX, GmbH, Germany) so as to be inhaled for one hour. In five hours after the final sensitization (day 30), an autopsy was performed, and 1 mL of phosphate buffer solution was flowed through a tracheotomy to collect a bronchoalveolar lavage fluid (BALF). The collected BALF was centrifuged at 3000 rpm for ten minutes, and the supernatant was used to measure bioactive materials (IL-4, IL-5), and pellets were used to measure the number of inflammatory cells. In addition, an IgE concentration in the isolated BALF was measured using IgE enzyme-linked immunosorbent assay (ELISA, Komabiotech), and IL-4 and IL-5 were measured using their respective enzyme-linked immunosorbent assay (ELISA, IL-4: Enzo #ADI-900-043, IL-5: R&D system #M5000).
The results are shown in Table 8 and FIG. 22, and each secretion inhibitory activity was calculated in the same manner as in [Equation 2] of Experimental Example 4.
In addition, the BALF pellets were re-dissolved by adding 0.5 mL of phosphate buffer solution, and then 0.1 mL for each thereof was added to a 96-well plate and centrifuged at 800 rpm for five minutes to attach cells to the bottom (three wells per sample). Then, the cells were stained with Diff Quik staining solution (Sysmex) and the number of cells was measured with […].
The results were shown in FIG. 21, the SPSS program was used for statistical processing, the Levene test was performed for equal-variance test, and the significance test was performed through one-way ANOVA.

The mark [7] stands for this setting: RBL-2H3 cells, 1 uM A23187, read-out: IL-4 secretion inhibition IC50.
The mark [8] stands for this setting: mouse splenocytes, compound 1 μM.

Read-outs that look alike come from different tables or passages of the source.

What is called IC50 is the midpoint of a concentration-inhibition curve. Take `COc1cc2cc3c(c(-c4cc5c(cc4OC(=O)c4ccccn4)OCO5)c2cc1OC)C(=O)OC3` [Example 169, 6-(6,7-dimethoxy-3-oxo-1,3-dihydronaphtho[2,3-c]furan-4-yl)benzo[d][1,3]dioxol-5-yl picolate]: in the series with SARS-COV-2, the “SI (Selectivity Index, CC50/IC50)” value is listed as 40.73 and the IC50 came to 1.23 µM. The 50% inhibitory concentration (IC50) in series [1] (setting [7]) came out at 2.34 µM. In series [2] (setting [8]), the inhibition at 1 µM came to 86.3% and the IL-4 pg/ml stood at 46.7 pg/mL. Also, in series [3] (setting [8]), the inhibition at 1 µM stood at 27.9% and the IL-5 pg/ml was found to be 67.1 pg/mL. The same compound yielded a CC50 in “in vitro” greater than 50 µM.
For the compound `COc1cc2cc3c(c(-c4cnc(N5CCSCC5)nc4)c2cc1OC)C(=O)OC3` [Example 63, 6,7-dimethoxy-9-(2-thiomorpholinopyrimidin-5-yl)naphtho[2,3-c]furan-1(3H)-one], in the series on SARS-COV-2, the “SI (Selectivity Index, CC50/IC50)” value turned out to be 23.56 and the half-inhibitory concentration (IC50) was found to be 2.12 µM. Also, the concentration for half-maximal inhibition (IC50) in series [1] (setting [7]) is 4.23 µM. In series [2] (setting [8]), the inhibition at 1 µM is 99.6% and the IL-4 pg/ml was 1.3 pg/mL. In series [3] (setting [8]), the inhibition at 1 µM was determined as 81.6% and the IL-5 pg/ml was found to be 17.2 pg/mL. In addition, the CC50 in the series “in vitro” was greater than 50 µM.
On to `CCC(C)CN(C)c1ncc(-c2c3c(cc4cc(OC)c(OC)cc24)COC3=O)cn1` (centres unmarked) [Example 65, 6,7-dimethoxy-9-(2-(methyl(2-methylbutyl)amino)pyrimidin-5-yl)naphtho[2,3-c]furan-1(3H)-one], for which, in the series on SARS-COV-2, the “SI (Selectivity Index, CC50/IC50)” value is recorded as 19.30 and the half-maximal inhibitory concentration (IC50) came to 2.59 µM. For the same compound, the IC50 in series [1] (setting [7]) amounted to 2.18 µM. Also, in series [2] (setting [8]), the inhibition at 1 µM turned out to be 99.5% and the IL-4 pg/ml worked out at 1.5 pg/mL. Further, in series [3] (setting [8]), the inhibition at 1 µM was determined as 73% and the IL-5 pg/ml came to 25.2 pg/mL. The CC50 in “in vitro” was greater than 50 µM.
`NC(=O)c1nc(F)c[nH]c1=O` [Favipiravir]: the 50% inhibitory concentration (IC50) in series [4] was found to be 278 µM.
Turning to `CCCCN(C)c1ncc(-c2c3c(cc4cc(OC)c(OC)cc24)COC3=O)cn1.Cl` [Example 76, 9-(2-(butyl(methyl)amino)pyrimidin-5-yl)-6,7-dimethoxynaphtho[2,3-c]furan-1(3H)-one hydrochloride], the “SI (Selectivity Index, CC50/IC50)” value in the series on SARS-COV-2 came out at 270.89. The IC50 in series [1] (RBL-2H3, read-out: IL-4 secretion inhibition IC50 (μM)) is 4.05 µM. For the same compound, the inhibition at 1 µM in series [2] (Mus musculus) was 99.6%; in series [3] (Mus musculus), 85.6%. In series [2] (setting [8]), this compound showed an IL-4 pg/ml of 1.2 pg/mL. Also, in series [3] (setting [8]), the IL-5 pg/ml stood at 13.4 pg/mL.
`COc1cc2cc3c(c(-c4cnc(Nc5ccc(C)c(C)c5)nc4)c2cc1OC)C(=O)OC3` [Example 14, 9-(2-((3,4-dimethylphenyl)amino)pyrimidin-5-yl)-6,7-dimethoxynaphtho[2,3-c]furan-1(3H)-one]: in the series with SARS-COV-2, the “SI (Selectivity Index, CC50/IC50)” value turned out to be 3.31 and the IC50 turned out to be 15.1 µM. The inhibition at 0.001 µM in series [5] is 58.9%. The compound also showed a CC50 in “in vitro” greater than 50 µM.
Take `CCOC(=O)[C@@H]1CCCN1c1ncc(-c2c3c(cc4cc(OC)c(OC)cc24)COC3=O)cn1` [Example 19, (S)ethyl 1-(5-(6,7-dimethoxy-3-oxo-1,3-dihydronaphtho[2,3-c]furan-4-yl)pyrimidin-2-yl)pyrrolidin-2-carboxylate]: in the series with SARS-COV-2, the “SI (Selectivity Index, CC50/IC50)” value was 1.60 and the IC50 was found to be 31.3 µM. In addition, the inhibition at 0.001 µM in series [5] was 92.3%. The same compound yielded a CC50 in the series “in vitro” greater than 50 µM.
For `COc1cc2cc3c(c(-c4cnc(N(C)C(C)C)nc4)c2cc1OC)C(=O)OC3` [Example 23, 9-(2-(isopropyl(methyl)amino)pyrimidin-5-yl)-6,7-dimethoxynaphtho[2,3-c]furan-1(3H)-one], in the series with SARS-COV-2, the “SI (Selectivity Index, CC50/IC50)” value is 61.34 and the IC50 is 0.08 µM. For the same compound, the inhibition at 0.001 µM in series [5] turned out to be 68.2%. Besides, in “in vitro”, the CC50 is greater than 50 µM.
Regarding `C[C@@H]1C[C@H]2[C@@H]3CCC4=CC(=O)C=C[C@]4(C)[C@@]3(F)[C@@H](O)C[C@]2(C)[C@@]1(O)C(=O)CO` [Dexamethasone, dexamethasone, reference compound], in series [6], the “BALF IL-4 Secretion inhibitory ability %” value is “(102.7%)”, the “BALF IL-5 Secretion inhibitory ability %” value is on record as “(50.0%)” and the “BALF IgE Secretion inhibitory ability %” value is reported as “(93.0%)”. Besides, in series [6] (Mean ± S.D., n = 5, ten days), the “BALF IL-4 pg/ml” value is on record as 32.9 ± 4.534 ^## pg/ml, the “BALF IL-5 pg/ml” value stood at 15.6 ± 8.07 pg/mL and the “BALF IgE ng/ml” value is on record as 1.3 ± 0.536 ^## ng/ml.
Turning to `COc1cc2cc3c(c(N[C@H]4CCc5c(cccc5OC)C4)c2cc1OC)C(=O)OC3` [Example 1, (S)-6,7-dimethoxy-9-((5-methoxy-1,2,3,4-tetrahydronaphthalen-2-yl)amino)naphtho[2,3-c]furan-1(3H)-one], in the series with SARS-COV-2, the “SI (Selectivity Index, CC50/IC50)” value came to 1.00 and the 50% inhibitory concentration (IC50) was greater than 50 µM. For the same compound, the inhibition at 0.001 µM in series [5] was determined as 61.9%. For the same compound, the CC50 in the series “in vitro” is greater than 50 µM.

The values above are taken from patent US20240368104A1, “Novel Dialkoxynaphtho[2,3-C]Furan-1(3H)-One Derivatives and Pharmaceutical Composition For Preventing or Treating Respiratory Disease or SARS-COV-2 Infection Disease, Comprising Same” (priority 2021, published 2024).
